Data taken from article PMC10385850, “Modified Hederagenin Derivatives Demonstrate Ex Vivo Anthelmintic Activity against Fasciola hepatica” (Pharmaceutics, 2023).
“Also recorded” adds a separate entry of the source.

How the values were obtained:
[1] = system: wild strain adult F. hepatica; test: Ex vivo motility assay on adult liver flukes (wild strain); assay type: cell-based, Fasciola hepatica; details: 40 µM; for Effect on wild strain adult fluke motility, in words: 72 h; for Average motility of 4 parasites with 95% CI at 72 hour time point: wild strain adult flukes, score 1 good/normal to 6 no movement or dead
Description: Due to the high number of active molecules and a shortage of Italian strain adult liver flukes, the eleven hit compounds were screened for 72 h at 40 µM (in 0.4% DMSO) on wild strain adult F. hepatica (n = 4/condition) of unknown provenance (Table S3). The protocol for culturing and scoring (motility) the activity of these compounds was previously described (1—good/normal; 2—moderate; 3—resting (less than 10 s pulses of body and head), 4—apathetic (less than 2 s pulses of body and head), 5—paralysis and 6–no movement or dead worms). Six compounds were deemed active in these assays and were selected for further screening.

[2] = system: F. hepatica newly excysted juveniles (NEJs), Italian strain; test: Ex vivo screen against newly excysted juveniles (NEJs), phenotype and motility scoring; assay type: cell-based, Fasciola hepatica; details: 10 µM; for Average motility of 25 NEJs with 95% CI, 24 hours / Average motility of 25 NEJs with 95% CI, 48 hours / Average motility of 25 NEJs with 95% CI, 72 hours: motility score 1 good/normal to 5 no movement; for Average phenotype of 25 NEJs with 95% CI, 24 hours / Average phenotype of 25 NEJs with 95% CI, 48 hours / Average phenotype of 25 NEJs with 95% CI, 72 hours: ultrastructure score 1 normal to 6 dead or dissolved; for Activity against NEJs (first screen), in words: 72 h co-culture
Description: […] The NEJs were excysted from metacercariae and assayed at 10 μM (in 0.1% DMSO) final concentration alongside negative (0.1% DMSO) and positive (10 μM TCBZ, in 0.1% DMSO) controls as previously described. The MC and IVL compound series were screened separately.
The motility (1—good/normal; 2—moderate; 3—low; 4—very little; 5—no movement) and phenotypic (ultrastructural changes) scores were noted according to a previously described scoring matrix (Figure S1 and Table S2).

Structure (SMILES)	Effect on wild strain adult fluke motility, in words [1]	Average motility of 4 parasites with 95% CI at 72 hour time point [1]	Average motility of 25 NEJs with 95% CI, 24 hours [2]	Average phenotype of 25 NEJs with 95% CI, 24 hours [2]	Average motility of 25 NEJs with 95% CI, 48 hours [2]	Average phenotype of 25 NEJs with 95% CI, 48 hours [2]	Average motility of 25 NEJs with 95% CI, 72 hours [2]	Average phenotype of 25 NEJs with 95% CI, 72 hours [2]	Activity against NEJs (first screen), in words [2]
CC1(C)CC[C@]2(NC(=O)N3CCCC3)CC[C@]3(C)C(=CCC4[C@@]5(C)CCC6OC(C)(C)OC[C@@]6(C)C5CC[C@]43C)C2C1 (stereo partly drawn) [MC023, N-((4aR,6aR,6bS,8aS,14bR)-2,2,4a,6a,6b,11,11,14b-Octamethyl-4a,5,6,6a,6b,7,8,9,10,11,12,12a,14,14a, 14b,15,16,16a-octadecahydro-4H-piceno[3,4-d][1,3]dioxin-8a(4bH)-yl)-pyrolidine-1-carboxamide]	less severe motility defects	4.75 (3.5;5.9)	5.00 (5.0;5.0)	5.00 (5.0;5.0)	5.00 (5.0;5.0)	5.00 (5.0;5.0)	5.00 (5.0;5.0)	5.00 (5.0;5.0)	maximal alterations to both phenotype/ultrastructure and motility
CC1(C)CC[C@]2(NC(N)=O)CC[C@]3(C)C(=CCC4[C@@]5(C)CCC6OC(C)(C)OC[C@@]6(C)C5CC[C@]43C)C2C1 (stereo partly drawn) [MC024, 1-((4aR,6aR,6bS,8aS,14bR)-2,2,4a,6a,6b,11,11,14b-Octamethyl-4a,5,6,6a,6b,7,8,9,10,11, 12, 12a,14,14a, 14b,15,16,16a-octadecahydro-4H-piceno[3,4-d][1,3]dioxin-8a(4bH)-yl)urea]	less severe motility defects	4.25 (3.2;5.7)	5.00 (5.0;5.0)	5.00 (5.0;5.0)	5.00 (5.0;5.0)	5.00 (5.0;5.0)	5.00 (5.0;5.0)	5.00 (5.0;5.0)	maximal alterations to both phenotype/ultrastructure and motility
CC1(C)CC[C@]2(NC(=O)N[C@H]3C(O)O[C@H](CO)[C@@H](O)[C@@H]3O)CC[C@]3(C)C(=CCC4[C@@]5(C)CCC6OC(C)(C)OC[C@@]6(C)C5CC[C@]43C)C2C1 (stereo partly drawn) [MC028, 1-((4aR,6aR,6bS,8aS,14bR)-2,2,4a,6a,6b,11,11,14b-Octamethyl-4a,5,6,6a,6b,7,8,9,10,11, 12,12a,14,14a, 14b,15,16,16a-octadecahydro-4H-piceno[3,4-d][1,3]dioxin-8a(4bH)-yl)-3-((3R,4R,5S,6R)-2,4,5-tri-hydroxy-6-(hydroxymethyl)tetrahydro-2H-pyran-3-yl)urea]	–	–	2.32 (1.8;2.7)	2.24 (1.6;2.8)	3.52 (2.9;4)	2.76 (2;3.4)	2.60 (1.9;3.2)	2.72 (2;3.4)	none reached the level required
CC1(C)CC[C@]2(NC(=O)N[C@H]3C(O)O[C@H](CO)[C@@H](O)[C@@H]3O)CC[C@]3(C)C(=CCC4[C@@]5(C)CC[C@H](O)[C@@](C)(CO)C5CC[C@]43C)C2C1 (stereo partly drawn) [MC030, 1-((4aS,6aS,6bR,9R,10S,12aR)-10-Hydroxy-9-(hydroxymethyl)-2,2,6a,6b,9,12a-hexa-methyl-1,3,4,5,6,6a,6b,7,8,8a,9,10,11,12,12a,12b,13,14b-octadecahydropicen-4a(2H)-yl)-3-((3R,4R,5S,6R)-2,4,5-tri-hydroxy-6-(hydroxymethyl)tetrahydro-2H-pyran-3-yl)urea]	–	–	3.20 (2.6;3.7)	3.00 (2.2;3.7)	3.92 (3.5;4.2)	3.60 (2.9;4.2)	3.96 (3.4;4.4)	4.00 (3.2;4.7)	none reached the level required; also recorded: low activity
CC(=O)OC[C@]12CCC(C)(C)CC1C1=CCC3[C@@]4(C)CCC5OC(C)(C)OC[C@@]5(C)C4CC[C@@]3(C)[C@]1(C)CC2 (stereo partly drawn) [MC031, ((4aR,6aR,6bS,8aS,14bR)-2,2,4a,6a,6b,11,11,14b-Octamethyl-4a,5,6,6a,6b,7,8,9,10,11,12,12a,14,14a, 14b,15,16,16a-octadecahydro-4H-piceno[3,4-d][1,3]dioxin-8a(4bH)-yl)methyl acetate]	–	–	2.96 (2.4;3.4)	2.72 (1.9;3.4)	2.76 (2;3.4)	3.64 (2.9;4.3)	3.44 (2.6;4.2)	4.80 (4.2;5.3)	–
CCCCCCCCCCCCCCCC(=O)OC[C@]12CCC(C)(C)CC1C1=CCC3[C@@]4(C)CCC5OC(C)(C)OC[C@@]5(C)C4CC[C@@]3(C)[C@]1(C)CC2 (stereo partly drawn) [MC032, ((4aR,6aR,6bS,8aS,14bR)-2,2,4a,6a,6b,11,11,14b-Octamethyl-4a,5,6,6a,6b,7,8,9,10,11,12,12a,14,14a, 14b,15,16,16a-octadecahydro-4H-piceno[3,4-d][1,3]dioxin-8a(4bH)-yl)methyl palmitate]	–	–	3.20 (2.6;3.7)	2.52 (1.7;3.3)	3.12 (2.5;3.6)	2.64 (1.8;3.4)	3.12 (2.5;3.7)	2.80 (2;3.5)	–
CC1(C)CC[C@]2(NC(=O)N3CCC[C@H]3C(=O)O)CC[C@]3(C)C(=CCC4[C@@]5(C)CCC6OC(C)(C)OC[C@@]6(C)C5CC[C@]43C)C2C1 (stereo partly drawn) [MC033, (((4aR,6aR,6bS,8aS,14bR)-2,2,4a,6a,6b,11,11,14b-Octamethyl-4a,5,6,6a,6b,7,8,9,10,11,12,12a,14,14a, 14b,15,16,16a-octadecahydro-4H-piceno[3,4-d][1,3]dioxin-8a(4bH)-yl)carbam-oyl)-L-proline]	–	–	3.80 (3.4;4.1)	3.28 (2.7;3.8)	3.88 (3.5;4.2)	3.44 (2.8;4)	3.76 (3.2;4.2)	4.04 (3.3;4.6)	–
CCCCCCCCCCCCCCCC(=O)OC[C@]12CCC(C)(C)CC1C1=CCC3[C@@]4(C)CC[C@H](O)[C@@](C)(CO)C4CC[C@@]3(C)[C@]1(C)CC2 (stereo partly drawn) [MC038, ((4aS,6aS,6bR,9R,10S,12aR)-10-Hydroxy-9-(hydroxymethyl)-2,2,6a,6b,9,12a-hexamethyl-1,3,4,5,6,6a, 6b,7,8,8a,9,10,11,12,12a,12b,13,14b-octadecahydropicen-4a(2H)-yl)methyl palmitate]	–	–	2.96 (2.3;3.5)	2.32 (1.7;2.9)	2.80 (2.2;3.3)	2.92 (2.1;3.6)	3.32 (2.7;3.8)	3.48 (2.7;4.2)	–
COC(=O)[C@H](Cc1c[nH]cn1)NC(=O)N[C@]12CCC(C)(C)CC1C1=CCC3[C@@]4(C)CC[C@@H]5OC(C)(C)OC[C@@]5(C)C4CC[C@@]3(C)[C@]1(C)CC2 (stereo partly drawn) [MC048, Methyl (((4aR,6aR,6bS,8aS,14bR,16aS)-2,2,4a,6a,6b,11,11,14b-octamethyl-4a,5,6,6a,6b,7,8,9,10,11,12, 12a,14,14a,14b,15,16,16a-octadecahydro-4H-piceno[3,4-d][1,3]dioxin-8a(4bH)-yl)carbamoyl)-L-histidinate]	–	–	1.40 (1.2;1.5)	1.44 (1.2;1.6)	–	–	1.96 (1.8;2)	1.88 (1.7;2)	–
CN(C[C@H](O)[C@@H](O)[C@H](O)[C@H](O)CO)C(=O)N[C@]12CCC(C)(C)CC1C1=CCC3[C@@]4(C)CC[C@@H]5OC(C)(C)OC[C@@]5(C)C4CC[C@@]3(C)[C@]1(C)CC2 (stereo partly drawn) [MC059, 1-Methyl-3-((4aR,6aR,6bS,8aS,14bR,16aS)-2,2,4a,6a,6b,11,11,14b-octamethyl-4a,5,6,6a, 6b,7,8,9,10,11, 12,12a,14,14a,14b,15,16,16a-octadecahydro-4H-piceno[3,4-d][1,3]dioxin-8a(4bH)-yl)-1-((2S,3R,4R,5R)-2,3,4,5,6-pentahydroxyhexyl)urea]	–	–	2.84 (2.3;3.3)	2.68 (1.9;3.3)	3.20 (2.7;3.6)	3.04 (2.3;3.7)	3.20 (2.6;3.7)	3.88 (3.2;4.4)	none reached the level required
